Laboratory results from patent publication US20050053555A1, “Appetite control compositions and methods of use” (Crave Busters, LLC., priority 2003, published 2005).

Tested on: sweetness taste receptors of the tongue
Assay: blocking the sense of sweetness by topical delivery to mouth and tongue
Format: in vivo
Conditions: about 10 mg to about 80 mg glycyrrhizin delivered concurrently with gymnemic acid
Source text: Without being bound to any particular theory of action, it is currently believed that the appetite control compositions according to the invention deliver a relatively small dose of an active ingredient, gymnemic acid, directly to the sweetness taste receptors of the tongue, which blocks the sense of sweetness and thereby produces appetite control.
Gymnema sylvestre is commonly called Gurmar. It is well known in the art as a “sugar blocker.” Gymnema sylvestre contains the bitter principle gymnemic acid, which is well known for its ability to bind to the sweetness taste receptors on the tongue and to sugar absorption sites in the gut. Formerly, Gymnema sylvestre and extracts standardized to deliver gymnemic acid have been incorporated into traditional dosage forms to take advantage of its ability to block the absorption of sugar from the gut. […]
The appetite control compositions according to the invention include Gymnema sylvestre herb or, preferably, an extract of Gymnema sylvestre herb designed to maximize the quantity of gymnemic acid it contains. […]
In some embodiments, the appetite control compositions according to the invention include Glycyrrhiza glabra root or, preferably, an extract of Glycyrrhiza glabra root designed to maximize the quantity of glycyrrhizin it contains. […]

Question: Which “effect on quantity of gymnemic acid required to block the sense of sweetness for 1 to 2 hours” value does the source give for `CC1(C)[C@@H](O[C@H]2O[C@H](C(=O)O)[C@@H](O)[C@H](O)[C@H]2O[C@@H]2O[C@H](C(=O)O)[C@@H](O)[C@H](O)[C@H]2O)CC[C@]2(C)[C@H]3C(=O)C=C4[C@@H]5C[C@@](C)(C(=O)O)CC[C@]5(C)CC[C@@]4(C)[C@]3(C)CC[C@@H]12` [glycyrrhizin] here?
Answer: effectively reduces the quantity of gymnemic acid required
